The text below walks through data of US8569288B2, “Thienotriazolodiazepine derivatives active on apo A” (CircoMed LLC, priority 2008, dated 2013).

For test [1], the target named is platelet activating factor (PAF) (Homo sapiens, UniProt P25105). The note with it: known related thienotriazolodiazepine; cited from earlier work.
For test [2], the system named is apo A1 secretion in human hepatocytes. The test can be described thus: Apo A1 secretion by human hepatocytes (ELISA of supernatant, normalised to cell protein). The class given is cell-based. The note with it: for Apo A1 (ng secreted per mg cell protein), 1st / Apo A1 (ng secreted per mg cell protein), 2nd / Apo A1 (ng secreted per mg cell protein), mean: 3x24 h; for Apo A1 (ng secreted per mg cell protein), 1st: 1st parallel measurement; for Apo A1 (ng secreted per mg cell protein), 2nd: 2nd parallel measurement; for Apo A1 (ng secreted per mg cell protein), mean: mean of two measurements; for Stimulation of apo A1 secretion versus control level (in words): at concentrations as low as 3 μM, human hepatocytes. The procedure:
Human hepatocytes were isolated from pieces of livers, obtained from donors which could not be used for transplantation, following the procedure described in U.S. Pat. No. 6,444,664. The cells were seeded on culture dishes at a density of 1.5×10^5 viable cells per cm^2 and were maintained for the first 24 h in 1.5 mL per 10 cm^2 of Williams E medium supplemented with 10% heat inactivated fetal calf serum (FCS), 2 mmol/L L-glutamine, 20 mU/mL insulin (135 nmol/L), 50 nmol/L dexamethasone, 100 U/mL penicillin, 100 μg/mL streptomycin and 100 μg/mL kanamycin at 37° C. in a 5% CO2/95% air atmosphere. After 14-16 h the non-adherent cells were washed from the plates, using the same culture medium as described above. 24 h after seeding, the incubations with the compounds were started in 1 mL of the same culture medium, but with an insulin concentration of 10 nmol/L instead of 135 nmol/L.
The human hepatocytes were treated with compounds 5, 6 and 7 (dissolved in DMSO, with the final concentration of DMSO not exceeding 0.1% v/v) at concentrations of 100 μM, 30 μM, 10 μM and 3 μM and incubated for 24 hours. The DMSO concentration in all samples and controls was 0.1%. The control wells contained DMSO (0.1% v/v) alone. The medium on the cells was removed and replaced with fresh medium with fresh compound and incubated for 24 hours. The medium was then again removed and replaced with fresh medium with fresh compound and incubated for another 24 hours. The supernatant was then removed from the cells and levels of apo A1 were determined using a commercially available ELISA (AlerCHEK™) with a HRP conjugated goat anti-apo A1 antibody and TMB/peroxidase substrate colour developer. Supernatants were diluted 1:4 with the wash buffer provided in the kit.
After the last incubation the cells were washed twice with PBS, and BCA (bicinchoninic acid) reagent was added to each well to assay total cellular protein according to standard methods.
On the technique in general: An ELISA detects its analyte on a solid surface through an enzyme-linked reagent.

Test [3] has as its system central benzodiazepine receptor (BZD). The test can be described thus: Binding to central benzodiazepine receptor, [3H]flunitrazepam displacement on rat cerebral cortex membranes. The note with it: for % of control specific binding, 1st / % of control specific binding, 2nd / % of control specific binding, mean: 0.4 nM [3H]flunitrazepam. The procedure:
Affinity of the compounds of the invention to the central benzodiazepine receptor (BZD) was measured by determining the binding of 0.4 nM [^3H]flunitrazepam to rat cerebral cortex membranes, and its displacement by compounds of the invention as compared to the reference ligand diazepam, at 4° C. for 60 min, as described by R. C. Speth et al., Life Sci. 24:351-358 (1979).
The specific binding to the receptors is defined as the difference between the total binding and the non-specific binding determined in the presence of an excess of unlabeled ligand (diazepam). The results are expressed as a percent of control specific binding ((measured specific binding/control specific binding)×100) obtained in the presence of compound 5, 6 and 7.
In each experiment, the respective reference compound was tested concurrently with compound 5, 6 and 7 in order to assess the assay suitability. It was tested at several concentrations (for IC50 value determination).

Molecules are shown by their SMILES.

Chain of platelet activating factor (PAF) (P25105 whole entry): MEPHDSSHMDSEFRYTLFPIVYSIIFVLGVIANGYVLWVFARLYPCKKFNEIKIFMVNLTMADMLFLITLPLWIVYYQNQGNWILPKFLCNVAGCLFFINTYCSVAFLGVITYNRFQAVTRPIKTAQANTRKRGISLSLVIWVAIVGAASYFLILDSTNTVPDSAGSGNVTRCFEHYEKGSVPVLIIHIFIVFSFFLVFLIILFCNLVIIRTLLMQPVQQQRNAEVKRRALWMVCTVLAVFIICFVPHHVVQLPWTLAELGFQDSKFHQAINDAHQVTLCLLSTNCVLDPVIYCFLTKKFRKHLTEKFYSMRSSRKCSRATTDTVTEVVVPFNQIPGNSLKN

As to `Cc1nnc2n1-c1sc(CCC(=O)N3CCOCC3)cc1C(c1ccccc1Cl)=NC2` [WEB2086], in test [1], the “PAF antagonistic activity (in words)” value is given as “platelet activating factor (PAF) antagonistic activity”.

In the case of `Cc1nnc2n1-c1sccc1C(c1ccccc1)=NC2(C)C` [compound 5, 6,6-Dimethyl-4-phenyl-9-methyl-6H-thieno[3,2f]-s-triazolo[4,3-a][1,4]diazepine], the “Apo A1 (ng secreted per mg cell protein), 1st” value in test [2] (3 μM) is 247 ng secreted per mg cell protein; in test [2] (10 μM) it was 274 ng secreted per mg cell protein; in test [2] (30 μM), 219 ng secreted per mg cell protein; in test [2] (100 μM), 273 ng secreted per mg cell protein. Further, the “Apo A1 (ng secreted per mg cell protein), 2nd” value in test [2] (3 μM) was 124 ng secreted per mg cell protein; in test [2] (10 μM), 156 ng secreted per mg cell protein; in test [2] (30 μM), 227 ng secreted per mg cell protein; in test [2] (100 μM), 277 ng secreted per mg cell protein. Moreover, the “Apo A1 (ng secreted per mg cell protein), mean” value was 185 ng secreted per mg cell protein in test [2] (3 μM), 215 ng secreted per mg cell protein in test [2] (10 μM), 223 ng secreted per mg cell protein in test [2] (30 μM) and 275 ng secreted per mg cell protein in test [2] (100 μM). In addition, the “Stimulation of apo A1 secretion versus control level (in words)” value in test [2] is recorded as “stimulated secetion of apo A1 above the control level”. Moreover, the “Affinity to the benzodiazepine receptor (in words)” value in test [3] is “no significant affinity”. Moreover, the “% of control specific binding, 1st” value is on record as 90.0 % of control specific binding in test [3] (10^−6 M), 91.5 % of control specific binding in test [3] (10^−7 M), 102.0 % of control specific binding in test [3] (10^−8 M) and 88.9 % of control specific binding in test [3] (10^−9 M). For the same compound, the “% of control specific binding, 2nd” value in test [3] (10^−6 M) is 100.4 % of control specific binding; in test [3] (10^−7 M) it was 96.7 % of control specific binding; in test [3] (10^−8 M), 94.3 % of control specific binding; in test [3] (10^−9 M) it was 104.6 % of control specific binding. The “% of control specific binding, mean” value in test [3] (10^−6 M) is recorded as 95.2 % of control specific binding; in test [3] (10^−7 M), 94.1 % of control specific binding; in test [3] (10^−8 M), 98.2 % of control specific binding; in test [3] (10^−9 M), 96.8 % of control specific binding.

Consider `Cc1nnc2n1-c1sccc1C(c1ccc3c(c1)OCO3)=NC2` [compound 6, 4-(3′,4′-Methylenedioxyphenyl)-9-methyl-6H-thieno[3,2-f]-s-triazolo[4,3-a][1,4]diazepine], for which the “Apo A1 (ng secreted per mg cell protein), 1st” value is given as 144 ng secreted per mg cell protein in test [2] (3 μM), 186 ng secreted per mg cell protein in test [2] (10 μM), 290 ng secreted per mg cell protein in test [2] (30 μM) and 397 ng secreted per mg cell protein in test [2] (100 μM). In addition, the “Apo A1 (ng secreted per mg cell protein), 2nd” value is 160 ng secreted per mg cell protein in test [2] (3 μM), 212 ng secreted per mg cell protein in test [2] (10 μM), 293 ng secreted per mg cell protein in test [2] (30 μM) and 276 ng secreted per mg cell protein in test [2] (100 μM). The “Apo A1 (ng secreted per mg cell protein), mean” value in test [2] (3 μM) is 152 ng secreted per mg cell protein; in test [2] (10 μM), 199 ng secreted per mg cell protein; in test [2] (30 μM) it was 292 ng secreted per mg cell protein; in test [2] (100 μM), 336 ng secreted per mg cell protein. Moreover, the “Stimulation of apo A1 secretion versus control level (in words)” value in test [2] is “stimulated secetion of apo A1 above the control level”. In addition, the “Affinity to the benzodiazepine receptor (in words)” value in test [3] is “no significant affinity”. For the same compound, the “% of control specific binding, 1st” value in test [3] (10^−6 M) was 88.7 % of control specific binding; in test [3] (10^−7 M) it was 104.1 % of control specific binding; in test [3] (10^−8 M), 92.7 % of control specific binding; in test [3] (10^−9 M) it was 110.1 % of control specific binding. In addition, the “% of control specific binding, 2nd” value was 100.5 % of control specific binding in test [3] (10^−6 M), 101.3 % of control specific binding in test [3] (10^−7 M), 91.0 % of control specific binding in test [3] (10^−8 M) and 83.2 % of control specific binding in test [3] (10^−9 M). Also, the “% of control specific binding, mean” value in test [3] (10^−6 M) was 94.6 % of control specific binding; in test [3] (10^−7 M), 102.7 % of control specific binding; in test [3] (10^−8 M), 91.9 % of control specific binding; in test [3] (10^−9 M), 96.7 % of control specific binding.
